Measurements: paper PMC9061180 (RSC Advances, 2019)
Like-named read-outs stand apart in the source and are kept apart here.

How the values were obtained:
Format in all cases: cell-based
MCF10A (normal breast) = assay: cells; settings: read-out: GI50 MCF10A
[1] = system: MIA (pancreatic carcinoma); assay: cells; settings: read-out: GI50 MIA
SJ-G2 (glioblastoma) = assay: cells; settings: read-out: GI50 SJ-G2
BE2-C (neuroblastoma) = assay: cells; settings: read-out: GI50 BE2-C
U87 (glioblastoma) = assay: cells; settings: read-out: GI50 U87
[2] = system: Du145 (prostate carcinoma); assay: cells; settings: read-out: GI50 Du145
[3] = system: panel of eleven cancer cell lines and one normal cell line; assay: MTT cytotoxicity, panel of eleven cancer cell lines and one normal cell line; settings: for activity in initial screen: 25 μM drug concentration; for GI50: read-out: average GI50; for levels of toxicity: against HT29, U87, A2780, MIA and SMA cell lines
[4] = system: A2780 (ovarian carcinoma); assay: cells; settings: read-out: GI50 A2780
A431 (skin carcinoma) = assay: cells; settings: read-out: GI50 A431
H460 (lung carcinoma) = assay: cells; settings: read-out: GI50 H460
[5] = system: SMA (spontaneous murine astrocytoma); assay: cells; settings: read-out: GI50 SMA
MCF-7 (breast carcinoma) = assay: cells; settings: read-out: GI50 MCF-7
HT29 (colon carcinoma) = assay: cells; settings: read-out: GI50 HT29
[6] = Table 5, normal breast cell line, 72 h exposure, MTT

Compound	activity in initial screen [3]	GI50 (MCF10A (normal breast); Homo sapiens, MCF-10A, 72 h)	GI50 ([1]; 72 h)	GI50 (SJ-G2 (glioblastoma); SJ-G2, 72 h)	GI50 (BE2-C (neuroblastoma); Homo sapiens, BE(2)-C, 72 h)	GI50 (U87 (glioblastoma); 72 h)	GI50 ([2]; Homo sapiens, DU-145, 72 h)	levels of toxicity [3]	GI50 [3]	GI50 ([4]; Homo sapiens, A2780, 72 h)	GI50 (A431 (skin carcinoma); Homo sapiens, A-431, 72 h)	GI50 (H460 (lung carcinoma); Homo sapiens, NCI-H460, 72 h)	GI50 ([5]; Mus musculus, 72 h)	GI50 (MCF-7 (breast carcinoma); Homo sapiens, MCF7, 72 h)	GI50 (HT29 (colon carcinoma); Homo sapiens, HT-29, 72 h)	further results
(RS)-N-(2-(Cyclohexylamino)-2-oxo-1-phenylethyl)-N-phenylbut-2-enamide [Compound 16d]	sufficiently promising activity															GI50 (MCF10A (normal breast); [6]): 7.5 ± 1.8 µM; GI50 ([1]; Table 5, 72 h exposure, MTT): 4.5 ± 0.3 µM; GI50 (SJ-G2 (glioblastoma); Table 5, 72 h exposure, MTT): 13 ± 1 µM; GI50 (BE2-C (neuroblastoma); Table 5, 72 h exposure, MTT): 2.6 ± 0.3 µM; GI50 (U87 (glioblastoma); Table 5, 72 h exposure, MTT): 16 µM; GI50 ([2]; Table 5, 72 h exposure, MTT): 8.6 ± 2.3 µM; GI50 ([3]; average over the cell lines of Table 5): 9.4 µM; GI50 ([4]; Table 5, 72 h exposure, MTT): 12 µM; GI50 (A431 (skin carcinoma); Table 5, 72 h exposure, MTT): 2.2 ± 0.1 µM; GI50 (H460 (lung carcinoma); Table 5, 72 h exposure, MTT): 13 ± 0.3 µM; GI50 ([5]; Table 5, 72 h exposure, MTT): 14 ± 2 µM; GI50 (MCF-7 (breast carcinoma); Table 5, 72 h exposure, MTT): 4.6 ± 1.3 µM; GI50 (HT29 (colon carcinoma); Table 5, 72 h exposure, MTT): 15 ± 1 µM
C#CC(=O)N(c1ccccc1)C(C(=O)NC1CCCCC1)c1ccccc1 (racemic) [Compound 12, (RS)-N-(2-(Cyclohexylamino)-2-oxo-1-phenylethyl)-N-phenylpropiolamide]	sufficiently promising activity	2.9 ± 0.1 µM	0.25 ± 0.02 µM	3 ± 0.1 µM	0.5 ± 0.2 µM	0.19 ± 0.01 µM	0.18 ± 0.01 µM	sub-micro molar	1.16 µM	0.23 ± 0.02 µM	1 ± 0.2 µM	3.6 ± 0.6 µM	0.25 µM	1.6 ± 0.29 µM	0.27 ± 0.01 µM	
C#CC(=O)N(c1ccccc1)C(C(=O)NC1CCCCC1)c1ccc(OC)c(OC)c1 (racemic) [Compound 21, (RS)-N-(2-(Cyclohexylamino)-1-(3,4-dimethoxyphenyl)-2-oxoethyl)-N-phenylpropiolamide]		5.1 ± 0.4 µM	0.44 ± 0.14 µM	1.6 ± 0.18 µM	0.27 ± 0.029 µM	0.73 ± 0.13 µM	0.61 ± 0.25 µM			0.54 ± 0.12 µM	1 ± 0.29 µM	2.8 ± 1.1 µM		1.5 ± 0.12 µM	0.53 ± 0.041 µM	
N-(2-cyclohexylamino)-1-(4-methoxyphenyl)-2-oxoethyl-N-(3,5-dimethoxyphenyl)propiolamide [Compound 1, reference compound]																GI50 (MCF10A (normal breast); [6]): 0.29 ± 0.03 µM; GI50 ([1]; Table 5, 72 h exposure, MTT): 0.06 ± 0.03 µM; GI50 (SJ-G2 (glioblastoma); Table 5, 72 h exposure, MTT): 1.7 ± 0.26 µM; GI50 (BE2-C (neuroblastoma); Table 5, 72 h exposure, MTT): 0.03 ± 0.01 µM; GI50 (U87 (glioblastoma); Table 5, 72 h exposure, MTT): 0.06 ± 0.02 µM; GI50 ([2]; Table 5, 72 h exposure, MTT): 0.11 ± 0.05 µM; GI50 ([3]; across the cancer cell lines evaluated): ≤ 1 µM; GI50 ([4]; Table 5, 72 h exposure, MTT): 0.58 ± 0.51 µM; GI50 (A431 (skin carcinoma); Table 5, 72 h exposure, MTT): 0.46 ± 0.15 µM; GI50 (H460 (lung carcinoma); Table 5, 72 h exposure, MTT): 1.4 ± 0.6 µM; GI50 (MCF-7 (breast carcinoma); Table 5, 72 h exposure, MTT): 1.7 ± 0.17 µM; GI50 (HT29 (colon carcinoma); Table 5, 72 h exposure, MTT): 0.07 ± 0.01 µM
C#CC(=O)N(c1ccccc1)C(C(=O)NCc1ccccc1)c1ccccc1 (racemic) [Compound 17a, (RS)-N-(2-(Benzylamino)-2-oxo-1-phenylethyl)-N-phenylpropiolamide]	sufficiently promising activity	1.4 ± 0.4 µM	0.15 ± 0.009 µM	2.5 ± 0.1 µM	1.4 ± 0.3 µM	0.13 ± 0.017 µM	1 ± 0.01 µM	sub-micro molar	0.97 µM	0.1 ± 0.034 µM	0.97 ± 0.2 µM	2 ± 0.5 µM	0.16 µM	1.7 ± 0.2 µM	0.17 ± 0.003 µM	
C#CC(=O)N(c1ccccc1)C(C(=O)NC1CCCCC1)c1cccc(OC)c1OC (racemic) [Compound 20, (RS)-N-(2-(Cyclohexylamino)-1-(2,3-dimethoxyphenyl)-2-oxoethyl)-N-phenylpropiolamide]		7.6 ± 1.8 µM	0.46 ± 0.1 µM	1.8 ± 0.088 µM	0.46 ± 0.038 µM	0.71 ± 0.064 µM	0.66 ± 0.24 µM			0.49 ± 0.095 µM	1.2 ± 0.41 µM	2.3 ± 0.3 µM		1.8 ± 0.067 µM	0.47 ± 0.12 µM	
CC(=O)N(c1ccccc1)C(C(=O)NCc1ccccc1)c1ccccc1 (racemic) [Compound 17e, (RS)-N-Benzyl-2-phenyl-2-(N-phenylacetamido)acetamide]	sufficiently promising activity	15 ± 1 µM	8.5 ± 0.9 µM	15 ± 4 µM	25 ± 9 µM	> 50 µM	> 50 µM			16 µM	13 ± 1 µM	21 µM	> 50 µM	> 50 µM	> 50 µM	
O=C(NC1CCCCC1)C(c1ccccc1)N(C(=O)CC(F)(F)F)c1ccccc1 (racemic) [Compound 16g, (RS)-N-(2-(Cyclohexylamino)-2-oxo-1-phenylethyl)-3,3,3-trifluoro-N-phenylpropanamide]	sufficiently promising activity	5.1 ± 0.5 µM	5.9 ± 0.1 µM	11 ± 1 µM	6.9 ± 0.6 µM	12 ± 1 µM	4.8 ± 0.4 µM		7.2 µM	6.5 ± 0.2 µM	4.3 ± 0.3 µM	6 ± 0.5 µM	10 ± 0.3 µM	8 ± 2 µM	5.9 ± 0.2 µM	
C#CC(=O)N(c1ccccc1)C(C(=O)NCC(=O)OCC)c1ccccc1 (racemic) [Compound 18a, (RS)-Ethyl (2-phenyl-2-(N-phenylpropiolamido)acetyl)glycinate]	sufficiently promising activity	6.6 ± 1 µM	0.5 ± 0.1 µM	3 ± 0.2 µM	1.8 ± 0.4 µM	0.27 ± 0.03 µM	0.32 ± 0.04 µM	sub-micro molar	1.8 µM	0.33 ± 0.11 µM	2.1 ± 0.3 µM	3 ± 0.4 µM	0.48 ± 0.06 µM	2.7 ± 0.13 µM	0.47 ± 0.09 µM	
C#CC(=O)N(c1ccc(OC)cc1)C(C(=O)NC1CCCCC1)c1ccccc1 (racemic) [Compound 19, (RS)-N-(2-(Cyclohexylamino)-2-oxo-1-phenylethyl)-N-(4-methoxyphenyl)propiolamide]		3.3 ± 0.52 µM	0.2 ± 0.02 µM	0.76 ± 0.57 µM	0.2 ± 0.0067 µM	0.22 µM	0.2 ± 0.069 µM			0.22 ± 0.017 µM	0.59 ± 0.26 µM	2.2 ± 0.2 µM		1.2 ± 0.033 µM	0.2 ± 0.02 µM	
